{"source": "patent US8106092B2", "about": "“Treatment of solid cancers” (priority 2004, dated 2012)", "key": {"Lewis lung-OVA tumors": {"tested_on": "Lewis lung-OVA tumors", "experiment": "PEP005-mediated cure of primary Lewis lung-OVA tumors, challenge with secondary Lewis lung-OVA", "assay_type": "in vivo, C57BL/6 mice", "protocol": "FIGS. 4A to D are graphical representations showing protection against secondary tumors following cure of primary tumors with PEP005. (A) C57BL/6 mice received 5×10^5 Lewis lung-OVA s.c. on the back on day less 7 (d−7). When these primary tumors had reached an average 13.6 mm^2±1.8 SE (range 10-25 mm^2) on d0 they were treated once with 16 μg of PEP005 delivered i.t. In eight mice these primary tumors were cured, and these mice received 5×10^5 Lewis lung-OVA s.c. on d4 on the opposite flank from the primary tumors. The emergence of these secondary tumors was monitored over time (PEP005 cured). In a parallel group of animals (n=5) PEP005 treatment regressed the primary tumors, but after 11-13 days the primary tumors re-emerged. These animals also received secondary tumors as above and their emergence was again monitored over time (PEP005 regressed). Two control groups were included. One group (n=6) received no primary tumors, but was treated s.c. with PEP005 and received secondary tumors on the opposite flank (white triangles, PEP005 s.c.). The second control group (n=8) also received no primary tumors, was not treated with PEP005, and received secondary tumors as above (Controls). […] The experiment in (A) was repeated in Foxnl^nu mice; PEP005 cured (n=4), PEP005 regressed (n=7), Control (n=7). A PEP005 s.c. group was not included. (C) Treatment of primary Lewis lung-OVA with PEP005 induced SIINFEKL-specific CD8^+ T-cell responses using IFNγ ELISPOT when the secondary tumors had emerged or on d50. (D) Reduced growth of B16-OVA lung metastases following successful treatment of s.c. B16-OVA tumors with PEP005. C57BL/6 mice received 5×10^5 B16-OVA s.c. on the back on d−6. When these primary tumors had reached 10-20 mm^2 on d0, they were treated once with 18 μg of PEP005 delivered i.t., which cured the tumors in eight mice (PEP005 cured) and regressed the tumors in five mice (PEP005 regressed). Controls as above. Secondary B16-OVA (10^5) were injected i.v. on d6 and animals were sacrificed on d27 and lung metastases counted.\nB16 and B16 cells stably expressing ovalbumin (B16-OVA)were grown s.c. in C57BL/6 mice as described previously (Ogbourne et al, Cancer Res 64:2833-2839, 2004; Anraku et al, J Virol 76:3791-3799, 2002). Lung metastases were established as described (Zeh et al, J Immunol 162:989-994, 1999). Lewis lung-OVA (Nelson et al, J Immunol 166:5557-5566, 2001) were grown s.c. in C57BL/6 as described (Lenarczyk et al, Vaccine 22:963-974, 2004).\nTumors were treated by topical or intratumoral (i.t.) injection (using a 26 gauge needle) of (i) PEP0005 dissolved in acetone and then RPMI 1640 (final concentration of acetone 4%), or (ii) PEP005 formulated in PEG400. […]"}, "B16 lung metastases": {"tested_on": "B16 lung metastases", "experiment": "B16 lung metastasis model", "assay_type": "in vivo, C57BL/6 mice", "protocol": "FIG. 5 is a graphical representation showing the treatment of s.c. B16 tumors with PEP005 reduced growth B16 lung metastases. C57BL/6 mice (n=7) were injected with 10^6 B16 cells s.c. and 5×10^4 B16 cell i.v. on d−2. On dO the s.c. tumors had reached an average 21.8 mm^2+SE 2.4 and were cured with 25 μg of i.t. PEP005 formulated with PEG400. On d18 the mice were euthanazed and lung weights determined (PEP005). Control mice received only i.v. B16 and naïve mice received no tumors (n=6 per group).\nThe activity of PEP005-mediated cure of primary tumors was assessed in a more robust model using B16 tumors rather than B16-OVA tumors and where primary tumors and lung metastases were both established prior to PEP005 treatment. When the primary tumors had reached 21.8+SE 2.4 they were cured with i.t. PEP005 injection. […] After subtracting the weight of tumor free lungs (FIG. 5A, naïve, dotted line), this represented a reduction in lung tumor burden of over 50%."}}}
{"smiles": "C/C=C(/C)C(=O)O[C@H]1C(C)=C[C@]23C(=O)[C@@H](C=C(CO)[C@@H](O)[C@]12O)[C@H]1[C@@H](C[C@H]3C)C1(C)C", "note": "[PEP005, ingenol-3-angelate]", "values": [{"measurement": "growth of secondary tumors", "setting": "Lewis lung-OVA tumors; PEP005 regressed but failed to cure the primary tumors (n=5), not significant", "value": "slightly delayed"}, {"measurement": "growth of secondary tumors", "setting": "Lewis lung-OVA tumors; no primary tumors, PEP005 s.c. at a site distant from the secondary tumors", "value": "failed to reduce the growth of the secondary tumors"}, {"measurement": "animals in which secondary tumors failed to appear", "setting": "Lewis lung-OVA tumors; primary tumor cured by i.t. PEP005 (n=8), secondary inoculated d4 on opposite flank", "value": 50, "unit": "%"}, {"measurement": "emergence of secondary tumors", "setting": "Lewis lung-OVA tumors; primary tumor cured by i.t. PEP005 (n=8), log rank p=0.002", "value": "significantly delayed"}, {"measurement": "reduction in lung tumor burden", "setting": "B16 lung metastases; after subtracting the weight of tumor free lungs, d18", "value": "over 50%"}, {"measurement": "lung weights on d18 compared to controls", "setting": "B16 lung metastases; s.c. B16 primaries cured with i.t. PEP005, lung metastases established before treatment, p=0.023", "value": "lighter"}]}
